Assay [1] addresses T1, D(2) dopamine receptor (Homo sapiens, UniProt P14416). The assay can be described thus: Intrinsic activity from GTP shift using membranes from CHO cells transfected with mammalian dopamine receptor D2. Type of assay: cell membranes.
Assay [2] addresses T1, D(2) dopamine receptor. Briefly: Binding affinity against [3H]U-86,170-labeled dopamine receptor D2 in cloned CHO cells. Type of assay: cell-based.
In assay [3] the test system is Mus musculus. The assay can be described thus: Antagonism of apomorphine in reserpinized mice when a dose of 3.8 micro mol/kg is administered intraperitoneally. The format is functional.
Assay [4] deals with Mus musculus. The assay can be described thus: Antagonism of apomorphine in reserpinized mice when a dose of 38 micro mol/kg is administered intraperitoneally. Type of assay: functional.
In assay [5] the test system is Mus musculus. Briefly: Maximum decrease in temperature when compound is administered subcutaneously. The format is functional.
For assay [6], the system named is Mus musculus. Briefly: Antagonism of apomorphine for 0-10 minutes in reserpinized mice when a dose of 38 micro mol/kg is administered intraperitoneally. Type of assay: functional.
Assay [7] deals with Mus musculus. The assay can be described thus: Antagonism of apomorphine effects for 10-20 minutes in reserpinized mice following 0.4 umol/kg i.p. The format is functional.
The subject of assay [8] is Mus musculus. The assay can be described thus: Antagonism of apomorphine for 10-20 minutes in reserpinized mice when a dose of 3.8 micro mol/kg is administered intraperitoneally. Type of assay: functional.
Assay [9] relates to Mus musculus. The assay can be described thus: Ability to stimulate dopaminergic systems by effect on locomotor activity in reserpinized mice when a dose of 38 micro mol/kg is administered intraperitoneally. Type of assay: functional.
For assay [10], the system named is Mus musculus. Briefly: Antagonism of apomorphine effects for 0-10 minutes in reserpinized mice following 0.4 umol/kg i.p. The format is functional. Further details: unit not given beside the values.
Assay [11] has as its system Mus musculus. Briefly: Antagonism of apomorphine for 0-10 minutes in reserpinized mice when a dose of 3.8 micro mol/kg is administered intraperitoneally. The format is functional.
Assay [12] relates to Mus musculus. The assay can be described thus: Ability to stimulate dopaminergic systems by effect on locomotor activity in reserpinized mice when a dose of 3.8 micro mol/kg is administered intraperitoneally. The format is functional.
The test system of assay [13] is Mus musculus. The assay can be described thus: Increase in locomotor activity in reserpinized mice following 0.4 umol/kg i.p. Type of assay: functional.
The test system of assay [14] is Mus musculus. The assay can be described thus: Antagonism of apomorphine for 10-20 minutes in reserpinized mice when a dose of 38 micro mol/kg is administered intraperitoneally. Type of assay: functional.
Assay [15] is filed under the species Rattus norvegicus. The assay can be described thus: Effect on the synthesis rates of serotonin (5-HTP accumulation) in the rat ventral limbic brain region at 3.8uMkg. The format is functional, Limbic system.
Assay [16] has as its system Rattus norvegicus. Briefly: Inhibition of firing rates of dopaminergic neurons in the substantia nigra pars compacta by intravenous injection in rats. Type of assay: functional. The settings on record: Rattus norvegicus, Substantia nigra pars compacta, iv; read-out: ED50.
For assay [17], the system named is Mus musculus. Briefly: Antagonism of apomorphine effects in reserpinized mice following 0.4 umol/kg i.p. The format is functional.
Assay [18] concerns Mus musculus. Briefly: Effective dose on hypothermia in mouse when administered subcutaneously. The format is functional. The settings on record: sc.
The species named for assay [19] is Rattus norvegicus. The assay can be described thus: Effect on the synthesis rates of serotonin (5-HTP accumulation) in the rat ventral limbic brain region at 3.8uMkg. The format is functional, Limbic system.
For assay [20], the target named is T2, D(2) dopamine receptor (Rattus norvegicus, UniProt P61169). Briefly: Compound was evaluated for the binding affinity against [3H]U-86,170-labeled dopamine receptor D2 in cloned CHO cells. The format is cell-based.
For assay [21], the target named is T2, D(2) dopamine receptor. Briefly: Inhibition concentration against [3H]raclopride-labeled dopamine receptor D2 in rat striatum was estimated by single point experiment. compound was run at 1 uM. Type of assay: tissue-based.
Assay [22] concerns Mus musculus. The assay can be described thus: Effective dose on hypothermia in mouse when administered subcutaneously (95% confidence levels). The settings on record: sc. Type of assay: functional.
Assay [23] concerns Rattus norvegicus. Briefly: Effect on the synthesis rates of serotonin in the rat ventral limbic brain region 4.0 micro mol/kg. Values are given as percent change from the control. The format is functional, Limbic system.
For assay [24], the system named is Rattus norvegicus. The assay can be described thus: Effect on the synthesis rates of dopamine in the rat ventral limbic brain region at 4.0 micro mol/kg. Values are given as percent change from the control (*p<0.05). Type of assay: functional, Limbic system.
Assay [25] addresses T1, D(2) dopamine receptor. Briefly: Compound was evaluated for the intrinsic activity from GTP shift against dopamine receptor D2. Type of assay: functional.
The target of assay [26] is T2, D(2) dopamine receptor. Briefly: Binding affinity against [3H]raclopride-labeled dopamine receptor D2 in rat striatum. The format is tissue-based.
For assay [27], the system named is Mus musculus. The assay can be described thus: Antagonism of apomorphine in reserpinized mice when a dose of 3.5 micro mol/kg is administered intraperitoneally. The format is functional.
For assay [28], the system named is Mus musculus. Briefly: Antagonism of apomorphine in reserpinized mice when a dose of 35 micro mol/kg is administered intraperitoneally. Type of assay: functional.
For assay [29], the system named is Mus musculus. The assay can be described thus: Antagonism of apomorphine for 10-20 minutes in reserpinized mice when a dose of 3.5 micro mol/kg is administered intraperitoneally. Type of assay: functional.
Assay [30] has as its system Mus musculus. Briefly: Antagonism of apomorphine for 0-10 minutes in reserpinized mice when a dose of 3.5 micro mol/kg is administered intraperitoneally. The format is functional.
Assay [31] deals with Mus musculus. The assay can be described thus: Antagonism of apomorphine for 0-10 minutes in reserpinized mice when a dose of 35 micro mol/kg is administered intraperitoneally. The format is functional.
Assay [32] concerns Mus musculus. Briefly: Ability to stimulate dopaminergic systems by effect on locomotor activity in reserpinized mice when a dose of 3.5 micro mol/kg is administered intraperitoneally. The format is functional.
Assay [33] deals with Mus musculus. The assay can be described thus: Ability to stimulate dopaminergic systems by effect on locomotor activity in reserpinized mice when a dose of 35 micro mol/kg is administered intraperitoneally. Type of assay: functional.
In assay [34] the test system is Mus musculus. Briefly: Antagonism of apomorphine for 10-20 minutes in reserpinized mice when a dose of 35 micro mol/kg is administered intraperitoneally. Type of assay: functional.

What is called Ki is a dissociation constant, usually derived from enzyme kinetics or from competition with a known ligand. What is called ED50 is the dose that gives a 50% effect, or the effect in half of the subjects.

T2 sequence (P61169 whole entry): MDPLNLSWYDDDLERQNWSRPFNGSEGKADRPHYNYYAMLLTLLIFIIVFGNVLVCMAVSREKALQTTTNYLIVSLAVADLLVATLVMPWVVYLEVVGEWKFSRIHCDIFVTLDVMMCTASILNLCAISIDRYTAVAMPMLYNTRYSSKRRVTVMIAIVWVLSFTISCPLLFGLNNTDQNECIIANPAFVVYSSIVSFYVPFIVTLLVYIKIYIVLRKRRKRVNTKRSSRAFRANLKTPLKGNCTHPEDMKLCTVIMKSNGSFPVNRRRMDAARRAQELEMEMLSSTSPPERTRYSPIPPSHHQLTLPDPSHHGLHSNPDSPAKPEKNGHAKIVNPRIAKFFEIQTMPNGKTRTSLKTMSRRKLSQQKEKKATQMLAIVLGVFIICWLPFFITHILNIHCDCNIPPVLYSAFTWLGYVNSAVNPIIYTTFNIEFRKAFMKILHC
T1 sequence (P14416 whole entry): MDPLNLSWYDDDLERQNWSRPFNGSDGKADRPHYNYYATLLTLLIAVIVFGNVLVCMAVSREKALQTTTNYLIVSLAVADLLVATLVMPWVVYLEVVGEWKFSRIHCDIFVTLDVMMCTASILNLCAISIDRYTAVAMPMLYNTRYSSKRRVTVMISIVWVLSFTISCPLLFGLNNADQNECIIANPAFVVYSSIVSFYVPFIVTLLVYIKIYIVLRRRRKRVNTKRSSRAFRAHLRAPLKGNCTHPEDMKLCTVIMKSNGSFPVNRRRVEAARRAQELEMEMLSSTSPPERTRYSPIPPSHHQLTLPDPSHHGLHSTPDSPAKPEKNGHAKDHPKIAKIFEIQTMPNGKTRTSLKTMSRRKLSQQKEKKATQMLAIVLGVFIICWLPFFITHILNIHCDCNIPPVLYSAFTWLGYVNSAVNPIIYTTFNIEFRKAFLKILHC

As to `C=CCN1CC[C@@H]2c3cccc(O)c3CC[C@H]21` (racemic), the Intrinsic activity in assay [1] was determined as 44%. In [2], this compound gave an inhibition constant (Ki) of 4.1 nM. Moreover, the Locomotor activity is recorded as 67 in [3]; 6 in assay [4]; 5 in assay [6]; 83 in [7]; 82 in assay [8]; 53 in assay [9]. In addition, the Locomotor activity in assay [10] is 65; in [11], 29; in assay [12] it was 4; in assay [13], 12; in assay [14], 8; in assay [17], 109. The Max temperature decrease in assay [5] is on record as 2.1. Also, the Control in assay [15] is reported as 73%; in assay [19] it was -12%. For the same compound, the median effective dose (ED50) in assay [16] stood at 0.97 µmol/kg; in assay [18] it was 113 µmol/kg.
`C=CCN1CC[C@H]2c3c(O)cccc3CC[C@H]21` (racemic) gave a Ki in assay [20] of 153 nM. Besides, the Locomotor activity was 8 in assay [3]; 11 in assay [4]; 54 in assay [6]; 62 in assay [7]; 68 in [8]; 32 in [9]. Besides, the Locomotor activity in assay [10] came out at 56; in [11], 78; in assay [12], 63; in assay [13] it was 135; in assay [14], 69; in [17] it was 46.
`C=CCN1CC[C@@H]2c3ccccc3CC[C@H]21` (racemic): the Ki in assay [21] is above 1000 nM. In addition, in assay [22], it took a dose of 45 µmol/kg to reach the 50% effect level (ED50). In [5], this compound returned a Max temperature decrease of 4.5. The values for the Control in assay [23] and in assay [24] were -7% and 26%, respectively.
With `CCCN1CC[C@H]2c3c(cccc3OC)CC[C@H]21`, the Intinsic activity in [25] was 37%. The inhibition constant (Ki) in [26] worked out at 67 nM. The Locomotor activity was determined as 6 in assay [27]; 9 in assay [28]; 93 in assay [7]; 67 in assay [29]; 60 in assay [10]; 72 in assay [30]. For the same compound, the Locomotor activity in [31] is 49; in assay [32] it was 36; in assay [33], 69; in assay [13], 19; in [34], 51; in assay [17] it was 41.
As for `C=CCN1CCC2c3cccc(O)c3CC[C@H]21` (single isomer, unassigned; (-)), the Intrinsic activity in [1] came out at 22%. Moreover, the values for the inhibition constant (Ki) in assay [2] and in assay [26] were 108 nM and 49 nM, respectively. Further, the Locomotor activity in [3] stood at 62; in assay [4], 7; in [6] it was 22; in assay [7] it was 105; in [8] it was 115; in [9], 3. Besides, the Locomotor activity stood at 110 in [10]; 97 in assay [11]; 8 in [12]; 73 in assay [13]; 23 in assay [14]; 54 in [17]. Also, the Control in assay [15] is recorded as 45%; in assay [19], -0.3%.

Source of the values: ChEMBL document CHEMBL1127015, “Centrally acting serotonergic and dopaminergic agents. 1. Synthesis and structure-activity relationships of 2,3,3a,4,5,9b-hexahydro-1H-benz[e]indole derivatives” (J Med Chem, 1993).
